{
  "source": "patent US7700136B2",
  "about": "“Scutellaria barbata extract for the treatment of cancer” (priority 2005, dated 2010)",
  "tested_on": "subcutaneous cancer xenografts",
  "type": "in vivo, mice",
  "settings": "oral; BZL101 0.5 ml gavage every third day; cyclophosphamide 25 mg/Kg/day in drinking water; FIG. 6",
  "description": "As in Example 1, above, 10^5 cells were administered to each animal subcutaneously on Day 0. The animals were divided into four groups. The control group received only normal drinking water. The cyclophosphamide only group received 25 mg/Kg/day of cyclophosphamide in their drinking water.",
  "data": [
    {"molecule": "O=P1(N(CCCl)CCCl)NCCCO1", "note": "(stereo not shown) [cyclophosphamide]", "values": [
      {"measurement": "tumor growth inhibition", "result": "inhibited tumor growth as compared to the control"}
    ]}
  ]
}
